In patent US10604554B2, “Double-acylated GLP-1 derivatives” (Novo Nordisk A/S, priority 2012, dated 2020):
Numbered stars: 1 amine (or outer) side, 2 acyl side, 3 side chain; on linkers, the order of the positions; unused ones are H or OH. Square brackets hold non-standard residues; d marks the D form. Side chains are listed from the residue outwards. Peptide text beside a SMILES is read from it. * marks the point of attachment. Undecanoyl(11-OPh(4-COOH)) = O=C(O)c1ccc(OCCCCCCCCCCC(=O)*)cc1; γGlu = O=C(O)[C@H](CCC(=O)[*:2])N[*:1]; εLys = N[C@@H](CCCCN[*:1])C(=O)[*:2]; Aib = CC(C)(N)C(=O)O

Assays:
human GLP-1 receptor [1] = molecular target: T1, human GLP-1 receptor (Homo sapiens, UniProt P43220); assay: In vitro potency (CRE luciferase; whole cells); assay type: cell-based; set-up: EC50/pM (ratio 1% HSA/0% HSA): unit not given here; conditions: for EC50: BHK cells; for EC50/pM (ratio 1% HSA/0% HSA): ratio of EC50 at 1% HSA to EC50 at 0% HSA
T1 construct: expressed in transfected cells; host or cells: BHK cells, clone FCW467-12A/KZ10-1 (parent line BHKTS13), further transfected with CRE luciferase
T1 sequence (P43220 24-463): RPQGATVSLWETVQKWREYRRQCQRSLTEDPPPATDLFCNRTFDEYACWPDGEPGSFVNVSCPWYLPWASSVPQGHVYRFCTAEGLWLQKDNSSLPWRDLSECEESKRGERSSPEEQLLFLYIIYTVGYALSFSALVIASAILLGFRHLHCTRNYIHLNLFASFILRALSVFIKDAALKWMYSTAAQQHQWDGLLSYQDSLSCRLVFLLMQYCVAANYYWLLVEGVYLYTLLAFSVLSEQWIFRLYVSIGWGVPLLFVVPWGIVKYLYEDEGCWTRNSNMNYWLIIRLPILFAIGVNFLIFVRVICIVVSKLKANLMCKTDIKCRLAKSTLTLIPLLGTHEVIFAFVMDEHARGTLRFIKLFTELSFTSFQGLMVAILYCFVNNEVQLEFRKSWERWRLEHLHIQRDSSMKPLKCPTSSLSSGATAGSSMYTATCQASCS
Description: The purpose of this example is to test the activity, or potency, of the GLP-1 derivatives in vitro. The in vitro potency is the measure of human GLP-1 receptor activation in a whole cell assay.
In vitro potency was determined by measuring the response of human GLP-1 receptor in a reporter gene assay. The assay was performed in a stably transfected BHK cell line that expresses the human GLP-1 receptor and contains the DNA for the cAMP response element (CRE) coupled to a promoter and the gene for firefly luciferase (CRE luciferase). When the human GLP-1 receptor was activated it results in the production of cAMP, which in turn results in the luciferase protein being expressed. When assay incubation was completed the luciferase substrate (luciferin) was added and the enzyme converts luciferin to oxyluciferin and produces bioluminescence. The luminescence was measured and was the readout for the assay.
An increase of the in vitro potency, EC50 value, in the presence of serum albumin indicates an affinity to serum albumin and represents a method to predict a protracted pharmacokinetic profile of the test substance in animal models.
The cells were cultured at 5% CO2 in cell culture medium. They were aliquoted and stored in liquid nitrogen. Before each assay an aliquot was taken up and washed twice in PBS before being suspended at the desired concentration in the assay specific buffer.
The following chemicals were used in the assay: Pluronic F-68 (10%) (Gibco 2404), human serum albumin (HSA) (Sigma A9511), ovalbumin (Sigma A5503), DMEM w/o phenol red (Gibco 11880-028), 1 M Hepes (Gibco 15630), Glutamax 100× (Gibco 35050) and steadylite plus (PerkinElmer 6016757).
1) Cell stocks were thawed in a 37° C. water bath.
2) Cells were washed three times in PBS.
3) The cells were counted and adjusted to 5×10^3 cells/50 μl (1×10^5 cells/ml) in assay medium. A 50 μl aliquot of cells was transferred to each well in the assay plate.
4) Stocks of the test compounds and reference compounds were diluted to a concentration of 0.2 μM in 0% assay buffer for the 0% HSA CRE luciferase assay and 1% assay buffer for the HSA CRE luciferase assay. […] 5) A 50 μl aliquot of compound or blank was transferred in triplicate from the dilution plate to the assay plate. […] 7) The assay plate was removed from the incubator and allowed to stand at room temperature for 15 min. 8) A 100 μl aliquot of steadylite plus reagent was added to each well of the assay plate (reagent was light sensitive). 9) Each assay plate was covered with aluminum foil to protect it from light and shaken for 30 min at room temperature. 10) Each assay plate was read in a Packard TopCount NXT instrument. Calculations and Results
The data from the TopCount instrument were transferred to GraphPad Prism software. The software averages the values for each replicate and performs a non-linear regression.

human GLP-1 receptor [2] = molecular target: T1, human GLP-1 receptor; assay: GLP-1 receptor binding (SPA, displacement of 125I-GLP-1)
Description: The purpose of this experiment is to investigate the binding to the GLP-1 receptor of the GLP-1 derivatives, and how the binding is potentially influenced by the presence of albumin. This is done in an in vitro experiment as described below.
In order to test the binding of the derivatives to albumin, the assay was performed with a low concentration of albumin (0.001%—corresponding to the residual amount thereof in the tracer), as well as with a high concentration of albumin (2.0% added). A shift in the binding affinity, IC50, is an indication that the peptide in question binds to albumin, and thereby a prediction of a potential protracted pharmacokinetic profile of the peptide in question in animal models.
Species (in vitro): Hamster
Biological End Point: Receptor Binding
A stable transfected cell line and a high expressing clone were selected for screening. The cells were grown at 5% CO2 in DMEM, 10% FCS, 1% Pen/Strep (Penicillin/Streptomycin) and 1.0 mg/ml of the selection marker G418.
The cells (approx. 80% confluence) were washed twice in PBS and harvested with Versene (aqueous solution of the tetrasodium salt of ethylenediaminetetraacetic acid), following which they were separated by centrifugation at 1000 rpm for 5 min. The cells/cell pellet must be kept on ice to the extent possible in the subsequent steps. The cell pellet was homogenised with Ultrathurrax for 20-30 seconds in a suitable amount of Buffer 1 (depending on the amount of cells, but e.g. 10 ml). The homogenate was centrifuged at 20000 rpm for 15 minutes. The pellet was resuspended (homogenised) in 10 ml Buffer 2 and re-centrifuged. This step was repeated once more. The resulting pellet was resuspended in Buffer 2, and the protein concentration was determined. The membranes were stored at minus 80° C.
Buffer 1:20 mM Na-HEPES+10 mM EDTA, pH 7.4
Buffer 2:20 mM Na-HEPES+0.1 mM EDTA, pH 7.4
Test compounds, membranes, SPA-particles and [^125I]-GLP-1(7-36)NH2 were diluted in assay buffer. 50 ul (micro liter) HSA (“high albumin” experiment containing 2% HSA), or buffer (“low albumin” experiment containing 0.001% HSA) was added to Optiplate, and 25 ul of test compounds were added. 5-10 ug membrane protein/sample was added (50 ul) corresponding to 0.1-0.2 mg protein/ml (to be preferably optimised for each membrane preparation). SPA-particles (Wheatgerm agglutinin SPA beads, Perkin Elmer, # RPNQ0001) were added in an amount of 0.5 mg/well (50 ul). The incubation was started with [^125I]-GLP-1]-(7-36)NH2 (final concentration 0.06 nM corresponding to 49.880 DPM, 25 ul). The plates were sealed with PlateSealer and incubated for 120 minutes at 30° C. while shaking. The plates were centrifuged (1500 rpm, 10 min) and counted in Topcounter.

[3] = In vitro potency (CRE luciferase) EC50 (1% HSA), 1% HSA
[4] = Receptor binding affinity IC50 (high HSA), 2.0% HSA (high albumin)
[5] = Receptor binding affinity IC50 (low HSA), 0.001% HSA (low albumin)

CC[C@H](C)[C@H](NC(=O)[C@H](Cc1ccccc1)NC(=O)[C@H](CCC(=O)O)NC(=O)[C@H](CCCCNC(=O)[C@@H](N)CCCCNC(=O)CC[C@H](NC(=O)CC[C@H](NC(=O)CC[C@H](NC(=O)CCCCCCCCCCOc1ccc(C(=O)O)cc1)C(=O)O)C(=O)O)C(=O)O)NC(=O)[C@H](C)NC(=O)[C@H](C)NC(=O)[C@H](CCC(N)=O)NC(=O)CNC(=O)[C@H](CCC(=O)O)NC(=O)[C@H](CC(C)C)NC(=O)[C@H](Cc1ccc(O)cc1)NC(=O)[C@H](CO)NC(=O)[C@H](CO)NC(=O)[C@@H](NC(=O)[C@H](CC(=O)O)NC(=O)[C@H](CO)NC(=O)[C@@H](NC(=O)[C@H](Cc1ccccc1)NC(=O)[C@@H](NC(=O)CNC(=O)[C@H](CCC(=O)O)NC(=O)C(C)(C)NC(=O)[C@@H](N)Cc1c[nH]cn1)[C@@H](C)O)[C@@H](C)O)C(C)C)C(=O)N[C@@H](C)C(=O)N[C@@H](Cc1c[nH]c2ccccc12)C(=O)N[C@@H](CC(C)C)C(=O)N[C@H](C(=O)N[C@@H](CCCNC(=N)N)C(=O)NCC(=O)N[C@@H](CCCNC(=N)N)C(=O)N[C@@H](CCCCNC(=O)[C@@H](N)CCCCNC(=O)CC[C@H](NC(=O)CC[C@H](NC(=O)CC[C@H](NC(=O)CCCCCCCCCCOc1ccc(C(=O)O)cc1)C(=O)O)C(=O)O)C(=O)O)C(=O)O)C(C)C [Example 39, N^ε26-[(2S)-2-amino-6-[[(4S)-4-carboxy-4-[[(4S)-4-carboxy-4-[[(4S)-4-carboxy-4-[11-(4-carboxyphenoxy)undecanoylamino]butanoyl]amino]butanoyl]amino]butanoyl]amino]hexanoyl], N^ε37-[(2S)-2-amino-6-[[(4S)-4-carboxy-4-[[(4S)-4-carboxy-4-[[(4S)-4-carboxy-4-[11-(4-carboxyphenoxy)undecanoylamino]butanoyl]amino]butanoyl]amino]butanoyl]amino]hexanoyl]-[Aib^8,Arg^34,Lys^37]-GLP-1-(7-37)-peptide] was tested, and the EC50 (human GLP-1 receptor [1]; In vitro potency (CRE luciferase) EC50 (0% HSA), 0% HSA) was 0.0037 nM, the EC50 (human GLP-1 receptor [1]; [3]) was 0.14 nM and the “EC50/pM (ratio 1% HSA/0% HSA)” value (human GLP-1 receptor [1]) was 38. For the same molecule, the IC50 (human GLP-1 receptor [2]; [4]) was 131 nM and the IC50 (human GLP-1 receptor [2]; [5]) was 0.06 nM.
CC[C@H](C)[C@H](NC(=O)[C@H](Cc1ccccc1)NC(=O)[C@H](CCC(=O)O)NC(=O)[C@H](CCCCNC(=O)[C@@H](N)CCCCNC(=O)CC[C@H](NC(=O)CC[C@H](NC(=O)CCCCCCCCCCOc1ccc(C(=O)O)cc1)C(=O)O)C(=O)O)NC(=O)[C@H](C)NC(=O)[C@H](C)NC(=O)[C@H](CCC(N)=O)NC(=O)[C@H](CCC(=O)O)NC(=O)[C@H](CCC(=O)O)NC(=O)[C@H](CC(C)C)NC(=O)[C@H](Cc1ccc(O)cc1)NC(=O)[C@H](CO)NC(=O)[C@H](CO)NC(=O)[C@@H](NC(=O)[C@H](CC(=O)O)NC(=O)[C@H](CO)NC(=O)[C@@H](NC(=O)[C@H](Cc1ccccc1)NC(=O)[C@@H](NC(=O)CNC(=O)[C@H](CCC(=O)O)NC(=O)C(C)(C)NC(=O)[C@@H](N)Cc1c[nH]cn1)[C@@H](C)O)[C@@H](C)O)C(C)C)C(=O)N[C@@H](CCC(=O)O)C(=O)N[C@@H](Cc1c[nH]c2ccccc12)C(=O)N[C@@H](CC(C)C)C(=O)N[C@H](C(=O)N[C@@H](CCCNC(=N)N)C(=O)NCC(=O)N[C@@H](CCCNC(=N)N)C(=O)N[C@@H](CCCCNC(=O)[C@@H](N)CCCCNC(=O)CC[C@H](NC(=O)CC[C@H](NC(=O)CCCCCCCCCCOc1ccc(C(=O)O)cc1)C(=O)O)C(=O)O)C(=O)N[C@@H](CCC(=O)O)C(=O)O)C(C)C [Example 42, N^ε26-[(2S)-2-amino-6-[[(4S)-4-carboxy-4-[[(4S)-4-carboxy-4-[11-(4-carboxyphenoxy)undecanoylamino]butanoyl]amino]butanoyl]amino]hexanoyl], N^ε37-[(2S)-2-amino-6-[[(4S)-4-carboxy-4-[[(4S)-4-carboxy-4-[11-(4-carboxyphenoxy)undecanoylamino]butanoyl]amino]butanoyl]amino]hexanoyl]-[Aib^8,Glu^22,Glu^30,Arg^34, Lys^37]-GLP-1-(7-37)-peptidyl-Glu] (H-H[Aib]EGTFTSDVSSYLEEQAAK([εLys-γGlu-γGlu-Undecanoyl(11-OPh(4-COOH))])EFIEWLVRGRK([εLys-γGlu-γGlu-Undecanoyl(11-OPh(4-COOH))])E-OH; N-terminus and C-terminus assumed) was tested, and the “EC50/pM (ratio 1% HSA/0% HSA)” value (human GLP-1 receptor [1]) was 251 and the IC50 (human GLP-1 receptor [2]; [5]) was 0.02 nM.
In the case of CC[C@H](C)[C@H](NC(=O)[C@H](Cc1ccccc1)NC(=O)[C@H](CCC(=O)O)NC(=O)[C@H](CCCCNC(=O)[C@@H](N)CCCCNC(=O)[C@H](CO)NC(=O)CNC(=O)[C@H](CO)NC(=O)CC[C@H](NC(=O)CCCCCCCCCCCOc1ccc(C(=O)O)cc1)C(=O)O)NC(=O)[C@H](C)NC(=O)[C@H](C)NC(=O)[C@H](CCC(N)=O)NC(=O)CNC(=O)[C@H](CCC(=O)O)NC(=O)[C@H](CC(C)C)NC(=O)[C@H](Cc1ccc(O)cc1)NC(=O)[C@H](CO)NC(=O)[C@H](CO)NC(=O)[C@@H](NC(=O)[C@H](CC(=O)O)NC(=O)[C@H](CO)NC(=O)[C@@H](NC(=O)[C@H](Cc1ccccc1)NC(=O)[C@@H](NC(=O)CNC(=O)[C@H](CCC(=O)O)NC(=O)C(C)(C)NC(=O)CCc1c[nH]cn1)[C@@H](C)O)[C@@H](C)O)C(C)C)C(=O)N[C@@H](C)C(=O)N[C@@H](Cc1c[nH]c2ccccc12)C(=O)N[C@@H](CC(C)C)C(=O)N[C@H](C(=O)N[C@@H](CCCNC(=N)N)C(=O)NCC(=O)N[C@@H](CCCNC(=N)N)C(=O)N[C@@H](CCCCNC(=O)[C@@H](N)CCCCNC(=O)[C@H](CO)NC(=O)CNC(=O)[C@H](CO)NC(=O)CC[C@H](NC(=O)CCCCCCCCCCCOc1ccc(C(=O)O)cc1)C(=O)O)C(=O)O)C(C)C [Example 25], the EC50 (human GLP-1 receptor [1]; [3]) is reported as 0.124 nM and the IC50 (human GLP-1 receptor [2]; [4]) is reported as 274 nM.
